Patent US3954733A, “Naphthyridine-3-carboxamido-benzylpenicillins and salts thereof” (Sumitomo Chemical Company, Limited, priority 1973, dated 1976)
≈ marks a conversion by molar mass, not a printed value.

Experiments:
[1] = tested on: Pseudomonas; conditions: known penicillins and N-acyl ampicillins; cited from earlier work
[2] = tested on: gram-positive and gram-negative bacteria; conditions: known penicillins and N-acyl ampicillins; cited from earlier work
[3] = tested on: Pseudomonas aeruginosa 104; assay: minimal inhibitory concentration, agar dilution method; type: cell-based
Text: (§1) When determined according to the agar dilution method, the penicillins (I) afford the minimal inhibitory concentrations against test microorganisms as shown in Table 2.

[4] = tested on: Staphylococcus aureus 209P; assay: as above; type: cell-based
Text: as §1

[5] = tested on: Escherichia coli NIHJ; assay: as above; type: cell-based
Text: as §1

[6] = tested on: Proteus miravilis GN2425; assay: as above; type: cell-based
[7] = tested on: Proteus vulgaris HV19; assay: as above; type: cell-based
[8] = tested on: Klebsiella pneumoniae PCI602; assay: as above; type: cell-based
Text: as §1

In the case of “6-(α-amino-thienylacetamido)penicillanic acid”, the “antimicrobial activity against Pseudomonas” value [1] is listed as “do not exert any appreciable antimicrobial activity against Pseudomonas” and the “growth inhibition / antimicrobial activity against gram-positive and gram-negative bacteria” value [2] is listed as “inhibit the growth of various gram-positive and gram-negative bacteria”.

`CC1(C)S[C@@H]2C(NC(=O)C(N)c3ccc(O)cc3)C(=O)N2[C@H]1C(=O)O` (stereo partly drawn) [Amoxycillin, 6-(α-amino-p-hydroxyphenylacetamido)penicillanic acid, reference compound] showed an MIC [3] greater than 200 µg/mL, an MIC [4] of 0.2 µg/mL (≈ 0.547 µM) and an MIC [5] of 12.5 µg/mL (≈ 34.2 µM). For the same compound, the MIC [6] was 3.13 µg/mL (≈ 8.57 µM), the MIC [7] was 12.5 µg/mL (≈ 34.2 µM) and the “antimicrobial activity against Pseudomonas” value [1] was “do not exert any appreciable antimicrobial activity against Pseudomonas”. For the same compound, the “growth inhibition / antimicrobial activity against gram-positive and gram-negative bacteria” value [2] was “inhibit the growth of various gram-positive and gram-negative bacteria”.

In the case of `CC1(C)S[C@@H]2[C@H](NC(=O)C3(N)CCCCC3)C(=O)N2[C@H]1C(=O)O` [Cyclacillin, 6-(1-amino-cyclohexane)carboxamidopenicillanic acid], the “antimicrobial activity against Pseudomonas” value [1] is given as “do not exert any appreciable antimicrobial activity against Pseudomonas” and the “growth inhibition / antimicrobial activity against gram-positive and gram-negative bacteria” value [2] is given as “inhibit the growth of various gram-positive and gram-negative bacteria”.

For `CC1(C)S[C@@H]2[C@H](NC(=O)[C@H](N)C3=CCC=CC3)C(=O)N2[C@H]1C(=O)O` [Epicillin, 6-[α-amino-2-(1,4-hexadienylacetamido)]penicillanic acid], the “antimicrobial activity against Pseudomonas” value [1] is given as “do not exert any appreciable antimicrobial activity against Pseudomonas” and the “growth inhibition / antimicrobial activity against gram-positive and gram-negative bacteria” value [2] is given as “inhibit the growth of various gram-positive and gram-negative bacteria”.

Work on `CC1(C)S[C@@H]2[C@H](NC(=O)C(NC(=O)c3ccccn3)c3ccccc3)C(=O)N2[C@H]1C(=O)O` (stereo partly drawn) [R, reference compound] yielded an MIC [3] of 50 µg/mL (≈ 110 µM), an MIC [8] of 50 µg/mL (≈ 110 µM) and an MIC [4] of 0.78 µg/mL (≈ 1.72 µM). For the same compound, the MIC [5] was 100 µg/mL (≈ 220 µM) and the MIC [6] was 50 µg/mL (≈ 110 µM).
